Reference: PubChem BioAssay (NCI)
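Cultured in 96-well plates, cells were exposed to test compound for 48 hours across five concentrations. TGI: concentration producing complete growth inhibition.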

Experiments:
Experiment in all cases: NCI-60 cell line screen, 48 h
NCI-H23 lung = tested on: NCI-H23 lung
UACC-62 melanoma = tested on: UACC-62 melanoma
LXFL 529 NSCLC = tested on: LXFL 529 NSCLC
RPMI-8226 leukemia = tested on: RPMI-8226 leukemia
RXF 393 renal = tested on: RXF 393 renal
COLO 205 colon = tested on: COLO 205 colon
HCT-116 colon = tested on: HCT-116 colon
OVCAR-5 ovarian = tested on: OVCAR-5 ovarian
SK-MEL-2 melanoma = tested on: SK-MEL-2 melanoma
M19-MEL melanoma = tested on: M19-MEL melanoma
MALME-3M melanoma = tested on: MALME-3M melanoma
U251 CNS = tested on: U251 CNS
HL-60(TB) leukemia = tested on: HL-60(TB) leukemia
ACHN renal = tested on: ACHN renal
HOP-62 NSCLC = tested on: HOP-62 NSCLC
HOP-92 NSCLC = tested on: HOP-92 NSCLC
KM12 colon = tested on: KM12 colon
SF-295 CNS = tested on: SF-295 CNS
M14 melanoma = tested on: M14 melanoma
SK-OV-3 ovarian = tested on: SK-OV-3 ovarian
OVCAR-4 ovarian = tested on: OVCAR-4 ovarian
SNB-19 CNS = tested on: SNB-19 CNS
SK-MEL-28 melanoma = tested on: SK-MEL-28 melanoma
OVCAR-3 ovarian = tested on: OVCAR-3 ovarian
CCRF-CEM leukemia = tested on: CCRF-CEM leukemia
SF-268 CNS = tested on: SF-268 CNS
KM20L2 colon = tested on: KM20L2 colon
SNB-78 CNS = tested on: SNB-78 CNS
NCI-H460 lung = tested on: NCI-H460 lung
K-562 leukemia = tested on: K-562 leukemia
NCI-H522 lung = tested on: NCI-H522 lung
MOLT-4 leukemia = tested on: MOLT-4 leukemia
HT29 colon = tested on: HT29 colon
UACC-257 melanoma = tested on: UACC-257 melanoma
IGROV1 ovarian = tested on: IGROV1 ovarian
SR leukemia = tested on: SR leukemia
A498 renal = tested on: A498 renal
UO-31 renal = tested on: UO-31 renal
SF-539 CNS = tested on: SF-539 CNS
DMS 114 small cell lung = tested on: DMS 114 small cell lung
SNB-75 CNS = tested on: SNB-75 CNS
EKVX NSCLC = tested on: EKVX NSCLC
NCI/ADR-RES ovarian = tested on: NCI/ADR-RES ovarian
SW-620 colon = tested on: SW-620 colon
LOX IMVI melanoma = tested on: LOX IMVI melanoma
SN12C renal = tested on: SN12C renal
MDA-MB-435 = tested on: MDA-MB-435
HCT-15 colon = tested on: HCT-15 colon
MCF7 breast = tested on: MCF7 breast
A549 NSCLC = tested on: A549 NSCLC
NCI-H226 lung = tested on: NCI-H226 lung
HS 578T breast = tested on: HS 578T breast
T-47D breast = tested on: T-47D breast
MDA-MB-231 breast = tested on: MDA-MB-231 breast
TK-10 renal = tested on: TK-10 renal
BT-549 breast = tested on: BT-549 breast
786-0 renal = tested on: 786-0 renal
HCC-2998 colon = tested on: HCC-2998 colon
MDA-N = tested on: MDA-N
PC-3 prostate = tested on: PC-3 prostate
SK-MEL-5 melanoma = tested on: SK-MEL-5 melanoma
CAKI-1 renal = tested on: CAKI-1 renal
OVCAR-8 ovarian = tested on: OVCAR-8 ovarian
DU-145 prostate = tested on: DU-145 prostate

Question: Which results are given for `COC1CCC(OS(C)(=O)=O)CO1` (stereo not given)?
Answer: TGI (NCI-H23 lung): > 100 µM; TGI (UACC-62 melanoma): > 100 µM; TGI (LXFL 529 NSCLC): > 100 µM; TGI (RPMI-8226 leukemia): 98.2 µM; TGI (RXF 393 renal): > 100 µM; TGI (COLO 205 colon): > 100 µM; TGI (HCT-116 colon): > 100 µM; TGI (OVCAR-5 ovarian): > 100 µM; TGI (SK-MEL-2 melanoma): > 100 µM; TGI (M19-MEL melanoma): > 100 µM; TGI (MALME-3M melanoma): > 100 µM; TGI (U251 CNS): > 100 µM; TGI (HL-60(TB) leukemia): > 100 µM; TGI (ACHN renal): > 100 µM; TGI (HOP-62 NSCLC): > 100 µM; TGI (HOP-92 NSCLC): > 100 µM; TGI (KM12 colon): > 100 µM; TGI (SF-295 CNS): > 100 µM; TGI (M14 melanoma): > 100 µM; TGI (SK-OV-3 ovarian): > 100 µM; TGI (OVCAR-4 ovarian): > 100 µM; TGI (SNB-19 CNS): > 100 µM; TGI (SK-MEL-28 melanoma): > 100 µM; TGI (OVCAR-3 ovarian): > 100 µM; TGI (CCRF-CEM leukemia): 91.7 µM; TGI (SF-268 CNS): > 100 µM; TGI (KM20L2 colon): > 100 µM; TGI (SNB-78 CNS): > 100 µM; TGI (NCI-H460 lung): > 100 µM; TGI (K-562 leukemia): > 100 µM; TGI (NCI-H522 lung): > 100 µM; TGI (MOLT-4 leukemia): > 100 µM; TGI (HT29 colon): > 100 µM; TGI (UACC-257 melanoma): > 100 µM; TGI (IGROV1 ovarian): > 100 µM; TGI (SR leukemia): > 100 µM; TGI (A498 renal): > 100 µM; TGI (UO-31 renal): > 100 µM; TGI (SF-539 CNS): > 100 µM; TGI (DMS 114 small cell lung): > 100 µM; TGI (SNB-75 CNS): > 100 µM

Question: Which TGI (NCI-H23 lung) does the source give for `COc1ccc2cc(CNCCCN3CCN(CCCNCc4ccc5cc(OC)ccc5c4)CC3)ccc2c1` here?
Answer: 3.5 µM

Question: What about the TGI (UACC-62 melanoma) of the same compound?
Answer: 1.36 µM

Question: What about the TGI (RPMI-8226 leukemia) of the same compound?
Answer: 0.577 µM

Question: What about the TGI (EKVX NSCLC) of the same compound?
Answer: 3.18 µM

Question: What about the TGI (NCI/ADR-RES ovarian) of the same compound?
Answer: 6.51 µM

Question: And the TGI (RXF 393 renal)?
Answer: 2.85 µM

Question: What about the TGI (SW-620 colon) of the same compound?
Answer: 0.982 µM

Question: And the TGI (COLO 205 colon)?
Answer: 2.83 µM

Question: What about the TGI (HCT-116 colon) of the same compound?
Answer: 2.56 µM

Question: What about the TGI (OVCAR-5 ovarian) of the same compound?
Answer: 2.6 µM

Question: What about the TGI (SK-MEL-2 melanoma) of the same compound?
Answer: 3.42 µM

Question: What about the TGI (MALME-3M melanoma) of the same compound?
Answer: 3.14 µM

Question: And the TGI (U251 CNS)?
Answer: 3.13 µM

Question: And the TGI (LOX IMVI melanoma)?
Answer: 1.48 µM

Question: And the TGI (SN12C renal)?
Answer: 3.11 µM

Question: And the TGI (HL-60(TB) leukemia)?
Answer: 0.594 µM

Question: And the TGI (ACHN renal)?
Answer: 3.19 µM

Question: And the TGI (HOP-62 NSCLC)?
Answer: 3.13 µM

Question: What about the TGI (MDA-MB-435) of the same compound?
Answer: 2.99 µM

Question: And the TGI (HOP-92 NSCLC)?
Answer: 2.82 µM

Question: What about the TGI (KM12 colon) of the same compound?
Answer: 2.14 µM

Question: And the TGI (HCT-15 colon)?
Answer: 3.01 µM

Question: What about the TGI (MCF7 breast) of the same compound?
Answer: 2.85 µM

Question: And the TGI (SF-295 CNS)?
Answer: 3.34 µM

Question: And the TGI (A549 NSCLC)?
Answer: 3.31 µM

Question: What about the TGI (M14 melanoma) of the same compound?
Answer: 3.01 µM

Question: What about the TGI (SK-OV-3 ovarian) of the same compound?
Answer: 2.72 µM

Question: What about the TGI (OVCAR-4 ovarian) of the same compound?
Answer: 3.48 µM

Question: What about the TGI (NCI-H226 lung) of the same compound?
Answer: 3.69 µM

Question: And the TGI (HS 578T breast)?
Answer: 3.32 µM

Question: What about the TGI (SNB-19 CNS) of the same compound?
Answer: 3.18 µM

Question: What about the TGI (SK-MEL-28 melanoma) of the same compound?
Answer: 3.09 µM

Question: And the TGI (OVCAR-3 ovarian)?
Answer: 3.02 µM

Question: What about the TGI (T-47D breast) of the same compound?
Answer: 3.19 µM

Question: And the TGI (MDA-MB-231 breast)?
Answer: 3.42 µM

Question: What about the TGI (CCRF-CEM leukemia) of the same compound?
Answer: 1.3 µM

Question: And the TGI (SF-268 CNS)?
Answer: 3.32 µM

Question: And the TGI (TK-10 renal)?
Answer: 3.3 µM

Question: What about the TGI (BT-549 breast) of the same compound?
Answer: 3.26 µM

Question: And the TGI (786-0 renal)?
Answer: 2.88 µM

Question: What about the TGI (NCI-H460 lung) of the same compound?
Answer: 2.87 µM

Question: And the TGI (K-562 leukemia)?
Answer: 0.366 µM

Question: What about the TGI (HCC-2998 colon) of the same compound?
Answer: 0.643 µM

Question: And the TGI (NCI-H522 lung)?
Answer: 3.81 µM

Question: What about the TGI (MOLT-4 leukemia) of the same compound?
Answer: 5.72 µM

Question: And the TGI (HT29 colon)?
Answer: 1.65 µM

Question: And the TGI (UACC-257 melanoma)?
Answer: 3.86 µM

Question: And the TGI (IGROV1 ovarian)?
Answer: 3.12 µM

Question: What about the TGI (MDA-N) of the same compound?
Answer: 2.78 µM

Question: And the TGI (SR leukemia)?
Answer: 0.658 µM

Question: What about the TGI (PC-3 prostate) of the same compound?
Answer: 2.36 µM

Question: What about the TGI (SK-MEL-5 melanoma) of the same compound?
Answer: 3.05 µM

Question: What about the TGI (CAKI-1 renal) of the same compound?
Answer: 3.2 µM

Question: What about the TGI (A498 renal) of the same compound?
Answer: 3.07 µM

Question: And the TGI (OVCAR-8 ovarian)?
Answer: 3.21 µM

Question: What about the TGI (UO-31 renal) of the same compound?
Answer: 3.14 µM

Question: What about the TGI (SF-539 CNS) of the same compound?
Answer: 3.39 µM

Question: And the TGI (DU-145 prostate)?
Answer: 2.88 µM

Question: And the TGI (SNB-75 CNS)?
Answer: 3.08 µM
